# Tests used:
# HMG-CoA reductase = biological target: T1, HMG-CoA reductase (Homo sapiens, UniProt P04035); assay: HMG-CoA reductase assay in isolated liver microsomes; type: biochemical
# T1 construct: from tissue; host or cells: liver microsomes
# T1 sequence (P04035 1-888): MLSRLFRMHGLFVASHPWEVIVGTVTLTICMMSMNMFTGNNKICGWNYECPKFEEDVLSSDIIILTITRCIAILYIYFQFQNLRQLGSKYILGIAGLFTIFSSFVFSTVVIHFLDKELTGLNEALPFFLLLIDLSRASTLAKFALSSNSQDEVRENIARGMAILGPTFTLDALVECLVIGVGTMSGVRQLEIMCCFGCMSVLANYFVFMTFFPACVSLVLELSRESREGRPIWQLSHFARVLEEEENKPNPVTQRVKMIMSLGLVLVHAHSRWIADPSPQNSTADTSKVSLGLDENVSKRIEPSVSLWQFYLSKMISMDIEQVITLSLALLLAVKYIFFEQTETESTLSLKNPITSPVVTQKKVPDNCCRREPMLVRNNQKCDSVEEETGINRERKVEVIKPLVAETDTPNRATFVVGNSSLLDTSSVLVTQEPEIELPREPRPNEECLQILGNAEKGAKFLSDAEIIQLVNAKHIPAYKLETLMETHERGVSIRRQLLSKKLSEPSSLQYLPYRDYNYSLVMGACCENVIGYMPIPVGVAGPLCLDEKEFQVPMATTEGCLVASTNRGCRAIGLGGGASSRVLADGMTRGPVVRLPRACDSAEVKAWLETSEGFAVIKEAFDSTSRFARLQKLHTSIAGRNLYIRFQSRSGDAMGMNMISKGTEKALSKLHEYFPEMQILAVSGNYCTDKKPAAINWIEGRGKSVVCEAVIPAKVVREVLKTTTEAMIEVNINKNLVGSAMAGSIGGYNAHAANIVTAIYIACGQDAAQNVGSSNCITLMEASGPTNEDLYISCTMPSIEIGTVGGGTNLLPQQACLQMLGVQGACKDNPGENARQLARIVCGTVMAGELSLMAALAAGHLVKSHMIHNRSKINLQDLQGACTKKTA
# Method: HMG-CoA reductase assays were performed in which increasing concentrations of xanthohumol (1 μM to 100 μM) were added to isolated liver microsomes. Xanthohumol had no effect on HMG-CoA reductase activity. As a positive control, atorvastatin (10 nM and 1 μM) was tested in the same assay, which inhibited reductase activity by 58% and 87% respectively. The protocol followed was as published in Telford et al. ATVB 2002; 22: 1884-1891.
# HepG2 cells = assay: Incorporation of 14C-acetic acid into cholesterol in HepG2 cells; type: cell-based; settings: Homo sapiens, read-out: Inhibition of acetate incorporation into cholesterol
# Method: The incorporation of ^14C-acetic acid into cholesterol was examined in HepG2 cells. […] The IC50 was approximately 20 μM. In the same HepG2 cell assay system, atorvastatin (10 nM and 1 μM) inhibited acetate incorporation into cholesterol by 20% and 80% respectively.
# Cyp1B 1 = biological target: T2, Cyp1B 1 (Homo sapiens, UniProt Q16678); settings: cDNA-expressed human enzyme; cited from earlier work
# T2 sequence (Q16678 1-543): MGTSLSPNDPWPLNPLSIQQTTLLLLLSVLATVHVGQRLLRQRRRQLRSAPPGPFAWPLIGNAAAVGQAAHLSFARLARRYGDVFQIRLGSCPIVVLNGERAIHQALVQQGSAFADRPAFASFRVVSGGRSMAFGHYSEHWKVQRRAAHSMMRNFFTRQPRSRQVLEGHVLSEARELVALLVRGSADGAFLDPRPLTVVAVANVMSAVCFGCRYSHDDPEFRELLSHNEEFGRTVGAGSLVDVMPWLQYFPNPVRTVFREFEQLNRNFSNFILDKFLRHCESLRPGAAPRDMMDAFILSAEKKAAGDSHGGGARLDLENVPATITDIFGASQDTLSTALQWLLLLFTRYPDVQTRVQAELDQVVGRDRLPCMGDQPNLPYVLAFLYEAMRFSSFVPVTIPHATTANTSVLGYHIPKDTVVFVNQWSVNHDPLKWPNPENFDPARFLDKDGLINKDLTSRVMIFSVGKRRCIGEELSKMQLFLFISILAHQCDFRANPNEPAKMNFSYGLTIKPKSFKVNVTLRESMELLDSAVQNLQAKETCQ
# Cyp1A2 = biological target: T3, Cyp1A2 (Homo sapiens, UniProt P05177); settings: cDNA-expressed human enzyme; cited from earlier work
# T3 sequence (P05177 1-516): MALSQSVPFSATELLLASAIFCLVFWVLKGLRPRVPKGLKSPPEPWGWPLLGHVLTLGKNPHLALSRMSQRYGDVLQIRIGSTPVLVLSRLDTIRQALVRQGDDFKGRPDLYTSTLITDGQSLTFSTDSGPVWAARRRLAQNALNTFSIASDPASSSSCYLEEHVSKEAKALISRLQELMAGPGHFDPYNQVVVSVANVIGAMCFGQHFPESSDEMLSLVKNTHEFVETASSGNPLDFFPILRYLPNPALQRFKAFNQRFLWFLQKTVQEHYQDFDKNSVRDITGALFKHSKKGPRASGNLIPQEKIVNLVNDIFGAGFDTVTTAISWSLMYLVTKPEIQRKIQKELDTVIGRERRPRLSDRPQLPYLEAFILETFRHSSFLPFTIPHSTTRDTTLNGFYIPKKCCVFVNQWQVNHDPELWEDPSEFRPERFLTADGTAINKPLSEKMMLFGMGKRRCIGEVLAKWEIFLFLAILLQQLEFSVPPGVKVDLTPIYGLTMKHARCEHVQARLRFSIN
# Cyp1A1 = biological target: T4, Cyp1A1 (Homo sapiens, UniProt P04798); settings: cDNA-expressed human enzyme; cited from earlier work
# T4 sequence (P04798 1-512): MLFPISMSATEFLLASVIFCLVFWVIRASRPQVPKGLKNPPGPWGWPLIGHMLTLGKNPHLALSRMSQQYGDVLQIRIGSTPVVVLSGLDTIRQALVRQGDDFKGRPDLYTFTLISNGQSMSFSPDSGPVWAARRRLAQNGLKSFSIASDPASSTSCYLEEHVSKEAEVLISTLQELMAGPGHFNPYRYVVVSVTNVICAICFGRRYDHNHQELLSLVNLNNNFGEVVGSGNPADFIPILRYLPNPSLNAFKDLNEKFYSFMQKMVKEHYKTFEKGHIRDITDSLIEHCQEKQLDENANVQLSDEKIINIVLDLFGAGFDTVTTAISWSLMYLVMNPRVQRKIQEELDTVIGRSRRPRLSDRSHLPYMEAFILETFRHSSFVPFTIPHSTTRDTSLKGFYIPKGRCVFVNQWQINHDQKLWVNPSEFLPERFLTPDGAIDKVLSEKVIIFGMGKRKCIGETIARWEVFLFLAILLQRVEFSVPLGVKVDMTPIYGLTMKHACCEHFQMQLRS
# endothelial cells = endothelial cells invading collagen gel, capillary-like tubes; cited from earlier work
# Caco-2 cell monolayers [1] = assay: Permeability across Caco-2 cell monolayers; type: in vitro ADME; settings: all monolayers, after exposure to test article
# Method: Percent Recovery=100×((Vr×Cr^final)+(Vd×Cd^final))/(Vd×C0)
# • dCr/dt is the slope of the cumulative concentration in the receiver compartment versus time in μMs^−1. • Vr is the volume of the receiver compartment in cm^3. • Vd is the volume of the donor compartment in cm^3. • A is the area of the cell-free insert (1.13 cm^2 for 12-well Transwell). • Cr^final is the cumulative receiver concentration in μM at the end of the incubation period. • Cd^final is the concentration of the donor in μM at the end of the incubation period. • C0 is the initial concentration of the dosing solution in μM.
# Each determination was performed in duplicate.
# Caco-2 cell monolayers [2] = assay: Caco-2 plate certification with control compounds; type: in vitro ADME; settings: TW12, passage 63, age 22 days
# Method: To test the permeability of xanthohumol across Caco-2 cell monolayers, Caco-2 cell monolayers were grown to confluence on collagen-coated, microporous, polycarbonate membranes in 12-well Costar Transwell® plates. Details of the plates and their certification are shown below in Table 3. The test article was also the aqueous xanthohumol formulation, and the dosing concentration was 2 μM in the assay buffer (HBSSg) as in the previous example. Cell monolayers were dosed on the apical side (A-to-B) or basolateral side (B-to-A) and incubated at 37° C. with 5% CO2 in a humidified incubator. Samples were taken from the donor chamber at 120 minutes, and samples from the receiver chamber were collected at 60 and 120 minutes. Each determination was performed in duplicate. Lucifer yellow permeability was also measured for each monolayer after being subjected to the test article to ensure no damage was inflicted to the cell monolayers during the permeability experiment. All samples were assayed for Xanthohumol by LC/MS/MS using electrospray ionization. The apparent permeability (Papp), and percent recovery were calculated as described above.
molecule,measurement,setting,value
"CC(C)c1c(C(=O)Nc2ccccc2)c(-c2ccccc2)c(-c2ccc(F)cc2)n1CC[C@@H](O)C[C@@H](O)CC(=O)O [atorvastatin, reference compound]",inhibition at 0.01 µM,HMG-CoA reductase; 10 nM,58%
same,inhibition at 1 µM,HMG-CoA reductase; 1 μM,87%
same,inhibition at 0.01 µM,HepG2 cells; 10 nM,20%
same,inhibition at 1 µM,HepG2 cells; 1 μM,80%
CC(C)=CCc1c(O)cc(O)c2c1O[C@H](c1ccc(O)cc1)CC2=O [8-prenylnaringenin],Inhibition of Cyp1B1,Cyp1B 1,strongly inhibit
same,Inhibition of Cyp1A2,Cyp1A2,strongly inhibit
same,Inhibition of Cyp1A1,Cyp1A1,strongly inhibit
same,Effect on angiogenesis in vitro,endothelial cells,inhibits angiogenesis
Lucifer Yellow [reference compound],"Lucifer yellow Papp, post-experiment integrity control",Caco-2 cell monolayers [1],< 0.8 ×10⁻⁶ cm/s
same,Papp,Caco-2 cell monolayers [2],0.13 ×10⁻⁶ cm/s
COc1cc(O)c(CC=C(C)C)c2c1C(=O)CC(c1ccc(O)cc1)O2 (stereo not shown) [isoxanthohumol],Inhibition of Cyp1B1,Cyp1B 1,strongly inhibit
same,Inhibition of Cyp1A2,Cyp1A2,strongly inhibit
same,Inhibition of Cyp1A1,Cyp1A1,strongly inhibit

# Reference: patent publication US20120059052A1, “PRENYLFLAVONOID FORMULATIONS” (BIOACTIVES, INC., priority 2005, published 2012)
